Measurements as given in PubChem BioAssay AID248 (DTP/NCI, 2004).
“And” between values parts separate entries of the source, which are not always exact repeats. Identical values can stand only once. Toxic doses and inconclusive results are not listed. No stated cut-off is given here; in the data, active means T/C of 150% or more; inactive means T/C below 125%.

Test system: L1210 leukemia ip in BDF1 mice, survival T/C
Test: NCI In Vivo Anticancer Drug Screen. Data for tumor model L1210 Leukemia (intraperitoneal) in B6D2F1 (BDF1) mice
Details: endpoint: mean survival time, higher = longer survival
Outline: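 Tumor was transplanted into mice, which were then dosed with test compound or vehicle alone. Survival was recorded for each group, and the treated figure was expressed relative to the control figure.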

[1] = dose: 12.5 mg/kg/injection, schedule: Q01DX009 (ip), vehicle: saline
[2] = dose: 25.0 mg/kg/injection, schedule: Q01DX009 (ip), vehicle: saline
[3] = dose: 25.0 mg/kg/injection, schedule: Q04DX003 (ip), vehicle: saline
[4] = dose: 50.0 mg/kg/injection, schedule: Q04DX003 (ip), vehicle: saline
[5] = dose: 50.0 mg/kg/injection, schedule: Q01DX009 (ip), vehicle: saline
[6] = dose: 100.0 mg/kg/injection, schedule: Q01DX009 (ip), vehicle: saline
[7] = dose: 100.0 mg/kg/injection, schedule: Q04DX003 (ip), vehicle: saline
[8] = dose: 200.0 mg/kg/injection, schedule: Q04DX003 (ip), vehicle: saline
[9] = dose: 100.0 mg/kg/injection, schedule: Q04DX003 (ip), vehicle: saline with Tween-80
[10] = dose: 200.0 mg/kg/injection, schedule: Q04DX003 (ip), vehicle: saline with Tween-80
[11] = dose: 400.0 mg/kg/injection, schedule: Q04DX003 (ip), vehicle: saline with Tween-80
[12] = dose: 100.0 mg/kg/injection, schedule: Q01DX009 (ip), vehicle: Klucel (hydroxypropylcellulose) (HPC)
[13] = dose: 200.0 mg/kg/injection, schedule: Q01DX009 (ip), vehicle: Klucel (hydroxypropylcellulose) (HPC)
[14] = dose: 400.0 mg/kg/injection, schedule: Q01DX009 (ip), vehicle: Klucel (hydroxypropylcellulose) (HPC)
[15] = dose: 400.0 mg/kg/injection, schedule: Q04DX003 (ip), vehicle: saline
[16] = dose: 200.0 mg/kg/injection, schedule: Q01DX009 (ip), vehicle: saline
[17] = dose: 400.0 mg/kg/injection, schedule: Q01DX009 (ip), vehicle: saline
[18] = dose: 100.0 mg/kg/injection, schedule: Q01DX001 (ip), vehicle: Klucel (hydroxypropylcellulose) (HPC)
[19] = dose: 200.0 mg/kg/injection, schedule: Q01DX001 (ip), vehicle: Klucel (hydroxypropylcellulose) (HPC)
[20] = dose: 100.0 mg/kg/injection, schedule: Q04DX003 (ip), vehicle: Klucel (hydroxypropylcellulose) (HPC)
[21] = dose: 200.0 mg/kg/injection, schedule: Q04DX003 (ip), vehicle: Klucel (hydroxypropylcellulose) (HPC)
[22] = dose: 400.0 mg/kg/injection, schedule: Q04DX003 (ip), vehicle: Klucel (hydroxypropylcellulose) (HPC)
[23] = dose: 100.0 mg/kg/injection, schedule: Q01DX001 (ip), vehicle: saline
[24] = dose: 200.0 mg/kg/injection, schedule: Q01DX001 (ip), vehicle: saline
[25] = dose: 400.0 mg/kg/injection, schedule: Q01DX001 (ip), vehicle: saline

Measured: T/C

CC1CN=C(c2ccc(NC(=O)NCCCCCCCCCCNC(=O)Nc3ccc(C4=NCC(C)N4)cc3)cc2)N1 (configuration not stated)
inactive: dose: 5.0 mg/kg/injection, schedule: Q01DX015 (ip), vehicle: water 96 % of control | dose: 10.0 mg/kg/injection, schedule: Q01DX015 (ip), vehicle: water 102 % of control | dose: 20.0 mg/kg/injection, schedule: Q01DX015 (ip), vehicle: water 103 % of control

O=c1cc(CO)occ1O.O=c1cc(CO)occ1O.[O]=[V]
inactive: dose: 4.0 mg/kg/injection, schedule: Q01DX015 (ip), vehicle: carboxymethylcellulose (CMC) 101 % of control | dose: 8.0 mg/kg/injection, schedule: Q01DX015 (ip), vehicle: carboxymethylcellulose (CMC) 105 % of control | [1] 87 % of control | dose: 12.5 mg/kg/injection, schedule: Q04DX003 (ip), vehicle: saline 92 % of control | dose: 16.0 mg/kg/injection, schedule: Q01DX015 (ip), vehicle: carboxymethylcellulose (CMC) 106 % of control | [2] 92 % of control | [3] 91 % of control | [4] 102 % of control

Cc1ccccc1N=C1C(=O)Nc2ccccc21
inactive: dose: 100.0 mg/kg/injection, schedule: Q01DX001 (ip), vehicle: other 115 % of control | dose: 200.0 mg/kg/injection, schedule: Q01DX001 (ip), vehicle: other 91 % of control | dose: 400.0 mg/kg/injection, schedule: Q01DX001 (ip), vehicle: other 107 % of control

CC1(C)OCC(=NNC(N)=O)CO1
inactive: [5] 96 % of control | [6] 93 % of control | [7] 90 % of control | [8] 90 % of control

Cc1ccc2cc3c(ccc4ccccc43)c3c2c1CC3
inactive: [9] 119 % of control | [10] 120 % of control | [11] 120 % of control

OCCN(CCO)c1cc(O)cc(O)c1
inactive: dose: 100.0 mg/kg/injection, schedule: Q01DX009 (ip), vehicle: saline with Tween-80 98 % of control | [9] 98 % of control | dose: 200.0 mg/kg/injection, schedule: Q01DX009 (ip), vehicle: saline with Tween-80 96 % of control | [10] 91 % of control | dose: 400.0 mg/kg/injection, schedule: Q01DX009 (ip), vehicle: saline with Tween-80 96 % of control | [11] 102 % of control

CSc1ccccc1C(O)Cc1ccc([N+](=O)[O-])cc1 (configuration not stated)
inactive: [12] 105 % of control | [7] 98 % of control | [13] 93 % of control | [8] 98 % of control | [14] 96 % of control | [15] 95 % of control

Cc1ccc(C(C)C)c(OCC(O)CN2CC=CCC2)c1 (configuration not stated)
inactive: [3] 100 % of control | [4] 112 % of control | [7] 99 % of control and 109 % of control

CC(=O)SCCC(=O)O
inactive: dose: 8.25 mg/kg/injection, schedule: Q01DX009 (ip), vehicle: saline 94 % of control | [1] 92 % of control | dose: 18.75 mg/kg/injection, schedule: Q01DX009 (ip), vehicle: saline 103 % of control

C(=C\c1ccnc2ccccc12)/c1ccccc1
inactive: [6] 101 % of control | [9] 89 % of control | [16] 101 % of control | [10] 94 % of control | [17] 100 % of control | [11] 89 % of control

CC(=O)Oc1ccc2c(c1N=NN(C)C)CCC1C2CCC2(C)C(=O)CCC12 (configuration not stated)
inactive: [18] 98 % of control | [19] 104 % of control

Cc1cc2c(cc1C)NC(=O)CC(=O)N2
inactive: [12] 96 % of control and 97 % of control | [20] 92 % of control | [13] 86 % of control | [21] 100 % of control | [14] 89 % of control | [22] 89 % of control

CC1([N+](=O)[O-])COP(=O)(Nc2ccc(F)cc2)OC1 (configuration not stated)
inactive: dose: 100.0 mg/kg/injection, schedule: Q01DX001 (ip), vehicle: carboxymethylcellulose (CMC) 100 % of control | dose: 200.0 mg/kg/injection, schedule: Q01DX001 (ip), vehicle: carboxymethylcellulose (CMC) 94 % of control

CSCCC(NC(C)=O)C(=O)NNC(C)C (configuration not stated)
inactive: [2] 101 % of control | [5] 92 % of control | [6] 92 % of control | [16] 95 % of control | [17] 93 % of control

CC(=O)CC(=O)Nc1cccc(Br)c1
inactive: [9] 102 % of control | [10] 97 % of control | [11] 97 % of control

CNC(=O)NC
inactive: [7] 94 % of control | [8] 102 % of control | [15] 94 % of control

COC(=O)/C=C(\C)Nc1ccc([N+](=O)[O-])cc1
inactive: [23] 97 % of control | [24] 93 % of control | [25] 92 % of control

Nc1nn(-c2ccccc2)c(N)c1N=Nc1ccccc1
inactive: dose: 50.0 mg/kg/injection, schedule: Q01DX009 (ip), vehicle: Klucel (hydroxypropylcellulose) (HPC) 98 % of control | [12] 98 % of control | [13] 98 % of control

Cc1ccc(S(=O)(=O)OCCN(CCOS(=O)(=O)c2ccc(C)cc2)c2cccc([N+](=O)[O-])c2)cc1
inactive: dose: 50.0 mg/kg/injection, schedule: Q01DX001 (ip), vehicle: saline 97 % of control | [23] 100 % of control | [24] 97 % of control | [25] 88 % of control

CC(CP(c1ccccc1)c1ccccc1)(CP(c1ccccc1)c1ccccc1)CP(c1ccccc1)c1ccccc1
inactive: [18] 97 % of control | [20] 111 % of control | [19] 87 % of control | [21] 105 % of control | dose: 400.0 mg/kg/injection, schedule: Q01DX001 (ip), vehicle: Klucel (hydroxypropylcellulose) (HPC) 87 % of control | [22] 90 % of control

Cc1cc2nc3ccc(=[N+](C)C)cc-3sc2cc1N
inactive: dose: 3.12 mg/kg/injection, schedule: Q01DX009 (ip), vehicle: saline 94 % of control | dose: 6.25 mg/kg/injection, schedule: Q01DX009 (ip), vehicle: saline 100 % of control | [1] 117 % of control | [2] 101 % of control | [3] 98 % of control | [5] 100 % of control | [4] 106 % of control

CC(=O)CC(=O)Nc1ccc2ccccc2c1
inactive: [12] 98 % of control | [20] 92 % of control | [21] 97 % of control | [22] 92 % of control

CCOC(=O)c1ccc(NC(=O)SCCSC(=O)Nc2ccc(C(=O)OCC)cc2)cc1
inactive: [12] 90 % of control | [13] 91 % of control | [14] 91 % of control

O=C(Nc1ccc(F)cc1)c1ccc(Cl)cc1Cl
inactive: [23] 93 % of control | [7] 97 % of control | [24] 95 % of control | [8] 107 % of control | [25] 88 % of control | [15] 100 % of control
